Reference: US12589160B2, “Peptide-derived therapeutics targeting KDM5C for the treatment of cancer” (NUVOBIO CORPORATION, priority 2019, dated 2026)

Assays:
HCT 116 cells [1] = assay: Cell viability, resazurin reduction assay; format: cell-based; details: for loss of cell viability: HCT 116, 10 μM, cell penetrating peptide by itself
Method: (§1) FIG. 7. Cellular EP4 inhibitor delivery and viability. (A) Diagrammatic representation of EP4 inhibitor peptide showing N-terminally tagged 6-carboxyfluorescein and C-terminally tagged TAT cell delivery peptide. (B) Immunofluorescence microscopy showing internalization of EP4-TAT peptide (shown in green) to HCT 116 cells imaged 24 hr post-treatment with inhibitor. (C) Cell viability following 10 μM treatment of EP4 peptide conjugated to cell penetrating peptides, TAT, PR9 and CPP.
Cell viability was measured using the Resazurin reduction assay which indirectly quantifies living cells through the metabolically active reduction of resazurin to fluorescent resorufin. This assay allows to maintain cells viability and, therefore, to monitor cell growth with time. Exponentially growing cells were seeded into 96-well plates at the density of 2.0×10^4 cells/mL and incubated overnight. The media was replaced with fresh media prior to inhibitor treatment. Cells were treated with […] of inhibitor peptide for 24 hr. The inhibitor peptide was diluted in the cell culture media (DMEM −/−) in the absence of serum from a 5 mM stock. All the treated cells were compared to the control (TAT alone peptide with equivalent quantity of DMSO) which were considered as 100% viable. One set of wells also prepared with medium only for background subtracting and instrument gain adjustment. The experiments were carried out in triplicate and expressed as mean±SD. A 10% resazurin solution (0.15 mg/ml stock dissolved in PBS, filter sterilized and stored protected from light at 4° C.) was then added to each well and incubated for 2 hr. The fluorescence was recorded using a multiwell plate reader (Perkin Elmer) at Ex. 560 nm and Em. 610 nm.
The cell penetrating peptide tagged EP4 inhibitors are then tested for loss of cell viability on colorectal carcinoma HCT 116 cell line at a 10 μM dose (FIG. 7C).

HCT 116 cells [2] = assay: Flow cytometry, PI staining (subG1 / apoptosis); format: cell-based; details: HCT 116, 2 μM
Method: FIG. 8. Global cell cycle distribution in EP4-TAT treated HCT 116 cells. EP4-TAT increases global H3K4me3 levels in HCT 116 cells. (A) Two-parameter flow cytometric analysis of BrdU incorporation and DNA content was performed following a 24 hr exposure of 2 μM and 5 μM EP4-TAT to HCT 116 cells. (B) The proportion of propidium iodine stained cells were represented in each phase of the cell cycle cell cycle and (C) dose-response correlation of BrdU positive cells were represented. These values are expressed relative to untreated controls. Each value in B, C represents the mean (+/−SEM) determined from 3 independent experiments.
A total of 0.3×10^6 HCT 116 cells were plated in 6 well-plate and incubated overnight. Cells were treated with the inhibitor, DMSO and TAT alone controls. For each condition, approximately 1×10^6 HCT 116 cells were collected along with the floating cells in the media by centrifugation at 300×g for 10 min. The cells were then washed with 5 mL of ice-cold PBS and re-suspended in 0.5 mL of ice-cold PBS. […] The PI-treated cells were incubated at 37° C. for 30 min and then analyzed by a flow cytometry (BD Accuri™ C6 Plus). […]
To determine whether loss in cell viability was associated with increased apoptosis, HCT 116 cells were treated with 2 μM of EP4-TAT and analyzed by PI staining.

[3] = test system: H3K4me3 levels in HCT 116 cells; assay: Histone H3K4me3 status by western blot of histone extracts; format: cell-based; details: for global H3K4me3 levels: HCT 116
Method: FIG. 9. Comparison of KDM5 inhibitors, EP4-TAT and CPI-455. […] (B) Relative H3K4me3 levels were monitored in histone extracts from HCT 116 cells.
The EP4-TAT inhibitor from all the above experiments were tested for histone methylation status in HCT 116 cells. 3×10^6 cells were plated in 10 cm dish and incubated overnight. Cells were then treated with the inhibitors at various concentrations (0.001 to 15 μM). Cells (5×10^6 cells/mL), 24 hr of post dosing, were collected in 15 mL falcon tube and centrifuged at 300×g for 10 min. The supernatant was discarded and the cells are washed with iced cold PBS. The cell pellet is flash-frozen in liquid nitrogen and stored at −80° C. Histone isolation is done using standard protocol. To summarize, cells were re-suspended in 1 mL hypotonic lysis buffer (10 mM Tris-HCl pH 8, 1 mM KCl, 1.5 mM MgCl2 and 1 mM DTT) containing protease inhibitor. The cells were transferred to 1.5 mL tube and incubated for 30 min on rotor at 4° C. to promote hypotonic swelling and lysis. The intact nuclei are collected by centrifugation at 10,000×g for 10 min in a cooled tabletop centrifuge. The supernatant is entirely discarded and pellets were re-suspended completely in 600 μL 0.4N H2SO4 and incubated overnight on rotor at 4° C. The nuclear debris were removed by centrifugation at 16,000×g for 10 min. The supernatant containing the histones were transferred to a fresh 1.5 mL tube and precipitated by adding 195 μL TCA (33%) drop by drop. The reaction is incubated at 4° C. overnight under rotation. The histones were pelleted by centrifugation at 16,000×g for 10 min. After complete removal of the supernatant carefully, the histone pellets were washed with ice-cold acetone to remove the left-over acids without disturbing the pellet. Finally, the pellets were air dried for 30 min at room temperature. The histone pellets were dissolved in 100 μL milliQ water and stored frozen at −20° C. Samples of 1, 3 and 5 μL of histones were separated on 15% SDS-PAGE gel and stained with Coomassie Brilliant Blue and characterized on the quality and concentration of the histone. The locations of the linker histone H1 and the core histones H3, H2B, H2A and H4 were noted.
For western blot, of total of 1 μL of histones were separated on 15% SDS-PAGE and transferred overnight at 15V on PVDF membrane. Following blocking with 5% nonfat dry milk in 1×TBST for 1 hr, the membrane containing histones lanes treated with inhibitor, were probed with H3K4Me3 (Abcam) primary antibody (1:2500) in 1×PBST. Both the membranes were incubated overnight at 4° C. under rotation. […] Histone proteins were detected by Supersignal™ West Pico PLUS Chemiluminescent substrate (ThermoFisher Scientific) using the Chemidoc XRS+ imaging system (BioRad). […]

NCI60 cancer cell lines = assay: NCI60 cancer panel screen (SRB staining); format: cell-based; details: 48 h, normalized to TAT-alone; SNB-75, A498, RXF393, UO-31, HOP-92, NCI-226, EKVX
Method: FIG. 10. NCI60 cancer panel screen of EP4-TAT. EP4-TAT and TAT-alone peptides were sent to the National Cancer Institute—Developmental Therapeutics program for screening effect on cell growth on the NCI60 cancer panel. Cell growth was monitored post-treatment with peptide in a dose-responsive manner (n=4). EP4-TAT effects were normalized to TAT-alone effects to control for delivery peptide. Following drug addition, the plates were incubated for an additional 48 hours at 37° C., 5% CO2, 95% air, and 100% relative humidity. Cell growth was monitored by Sulforhodamine B (SRB) staining. GI50 values are defined at the concentration of EP4-TAT that decreased cell growth by 50%.
Following the receipt at the NCI, cell-active EP4-TAT was be tested for its effects on cell viability in a dose-responsive manner in the complete panel. The effect of EP4-TAT on cell viability was carried out using Sulforhodamine B (SRB) staining in all 60 cell lines (n=4). Using several measurements [time zero (Tz), control growth (C), and growth at the five inhibitor concentrations (Ti)], the percentage growth will be calculated at each inhibition concentration. […]

HCT 116 cells [4] = assay: Internalization of FITC-labelled peptides (fluorescence microscopy); format: cell-based; details: HCT 116, 10 μM, 24 hr
Method: as §1
To evaluate the internalization of FITC-labelled peptides, exponentially growing HCT 116 cells were seeded on 6 well plate at a density of 2×10^5 cells per well and incubated overnight. After overnight incubation, the media (DMEM with penstrep and 10% FBS) was replaced with fresh media supplemented with 10 μM FITC-labelled inhibitor peptides. Following the incubation (24 hr), cells were washed three times with ice cold PBS to remove the excess extracellular complexes. Cells were then stained with Hoechst dye (1:2000 dilution from 10 mg/mL stock in PBS) directly adding sufficient staining solution to the well. Cells were incubated for 10 min with the dye, protected from light. The staining solution is discarded and the cells were washed 3 times with PBS and imaged directly under fluorescent microscope.
Our EP4 KDM5C inhibitor peptide were tested for a decrease in cell viability. […]

KDM5 = details: given as 'in vivo'; Vinogradova et al., 2016; read-out: IC50 of KDM5 inhibition; cited from earlier work

Substance: TEDSKTHHH(SEQ ID NO: 4){6-aminohexanoic acid}GRKKRRQRRRPPQ(SEQ ID NO: 45) (TEDSKTHHHGRKKRRQRRRPPQ) [EP4-TAT]
- loss of cell viability (comparison of cell penetrating peptide tags) (HCT 116 cells [1]; HCT 116, 10 μM dose): maximum and consistent loss of cell viability
- percentage of subG1 peak (HCT 116 cells [2]): 52.8%
- global H3K4me3 levels [3]: increase global H3K4me3 levels
- demethylation of histone H3K4 tri-methylation ([3]; HCT 116, 25 nM): inhibited
- cellular KDM5C inhibition compared with CPI-455 ([3]; HCT 116, relative H3K4me3 levels): more effective
- growth inhibitory (GI50) effect (NCI60 cancer cell lines): growth inhibitory (GI50) effect in 7 lines
- cellular internalization (HCT 116 cells [4]): internalization

Substance: CPI-455 [reference compound]
- global H3K4me3 levels [3]: increase global H3K4me3 levels
- IC50 (KDM5): ~25 µM

Substance: FFLIPKGRRRRRRRRR [PR9]
- loss of cell viability (HCT 116 cells [1]): 30%

Substance: RRWRRWRRWRR [CPP, cell penetrating peptide, chemically synthesized, cationic]
- loss of cell viability (HCT 116 cells [1]): 50%
